This note sets out measurements from ChEMBL document CHEMBL1133440, “Identification of a chemical tool for the orphan nuclear receptor FXR” (J Med Chem, 2000).

The target of the test is T1, Bile acid receptor (Homo sapiens) (UniProt Q96RI1).
T1 sequence (whole entry): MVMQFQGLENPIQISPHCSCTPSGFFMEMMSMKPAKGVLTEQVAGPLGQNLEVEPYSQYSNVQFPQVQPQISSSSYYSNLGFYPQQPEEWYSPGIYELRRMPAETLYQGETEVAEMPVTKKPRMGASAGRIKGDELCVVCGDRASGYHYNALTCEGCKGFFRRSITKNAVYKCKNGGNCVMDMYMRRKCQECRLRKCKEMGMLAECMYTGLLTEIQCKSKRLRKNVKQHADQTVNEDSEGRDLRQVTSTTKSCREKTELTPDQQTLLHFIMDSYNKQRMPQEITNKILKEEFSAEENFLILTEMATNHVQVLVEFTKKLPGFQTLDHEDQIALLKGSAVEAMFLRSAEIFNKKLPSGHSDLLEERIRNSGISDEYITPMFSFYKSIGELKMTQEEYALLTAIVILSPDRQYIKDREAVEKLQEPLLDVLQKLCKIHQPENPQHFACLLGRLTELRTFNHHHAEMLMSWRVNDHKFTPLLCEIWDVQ

The molecule `CC(C)c1onc(-c2c(Cl)cccc2Cl)c1COc1ccc(/C=C/c2cccc(C(=O)O)c2)c(Cl)c1` returned an RE of 1.4.
